Results from publication doi:10.1101/2025.06.29.662197v2 (biorxiv, 2026).

What was measured:
Type in all cases: biochemical
[1] = target: human HRI (Carna Bioscience # 05-154) (Homo sapiens, UniProt Q9BQI3); assay: LanthaScreen TR-FRET kinase assay, GFP-eIF2alpha
[2] = target: human GCN2 (full length, purified; Carna Bioscience # 05-153) (Homo sapiens, UniProt Q9P2K8); assay: LanthaScreen TR-FRET kinase assay, GFP-eIF2alpha
[3] = target: human PKR (Carna Bioscience # 05-156) (Homo sapiens, UniProt P19525); assay: LanthaScreen TR-FRET kinase assay, GFP-eIF2alpha
[4] = target: full-length human GCN2 (N-terminal twin StrepII tag) (Homo sapiens, UniProt Q9P2K8); assay: in vitro kinase assay, immunoblot of p-Ser51 eIF2alpha; conditions: 100 uM ATP, 2 uM full-length eIF2alpha, 30 °C, 20 min, no tRNA
full-length human GCN2 (N-terminal twin StrepII tag), sequence (Q9P2K8 whole entry): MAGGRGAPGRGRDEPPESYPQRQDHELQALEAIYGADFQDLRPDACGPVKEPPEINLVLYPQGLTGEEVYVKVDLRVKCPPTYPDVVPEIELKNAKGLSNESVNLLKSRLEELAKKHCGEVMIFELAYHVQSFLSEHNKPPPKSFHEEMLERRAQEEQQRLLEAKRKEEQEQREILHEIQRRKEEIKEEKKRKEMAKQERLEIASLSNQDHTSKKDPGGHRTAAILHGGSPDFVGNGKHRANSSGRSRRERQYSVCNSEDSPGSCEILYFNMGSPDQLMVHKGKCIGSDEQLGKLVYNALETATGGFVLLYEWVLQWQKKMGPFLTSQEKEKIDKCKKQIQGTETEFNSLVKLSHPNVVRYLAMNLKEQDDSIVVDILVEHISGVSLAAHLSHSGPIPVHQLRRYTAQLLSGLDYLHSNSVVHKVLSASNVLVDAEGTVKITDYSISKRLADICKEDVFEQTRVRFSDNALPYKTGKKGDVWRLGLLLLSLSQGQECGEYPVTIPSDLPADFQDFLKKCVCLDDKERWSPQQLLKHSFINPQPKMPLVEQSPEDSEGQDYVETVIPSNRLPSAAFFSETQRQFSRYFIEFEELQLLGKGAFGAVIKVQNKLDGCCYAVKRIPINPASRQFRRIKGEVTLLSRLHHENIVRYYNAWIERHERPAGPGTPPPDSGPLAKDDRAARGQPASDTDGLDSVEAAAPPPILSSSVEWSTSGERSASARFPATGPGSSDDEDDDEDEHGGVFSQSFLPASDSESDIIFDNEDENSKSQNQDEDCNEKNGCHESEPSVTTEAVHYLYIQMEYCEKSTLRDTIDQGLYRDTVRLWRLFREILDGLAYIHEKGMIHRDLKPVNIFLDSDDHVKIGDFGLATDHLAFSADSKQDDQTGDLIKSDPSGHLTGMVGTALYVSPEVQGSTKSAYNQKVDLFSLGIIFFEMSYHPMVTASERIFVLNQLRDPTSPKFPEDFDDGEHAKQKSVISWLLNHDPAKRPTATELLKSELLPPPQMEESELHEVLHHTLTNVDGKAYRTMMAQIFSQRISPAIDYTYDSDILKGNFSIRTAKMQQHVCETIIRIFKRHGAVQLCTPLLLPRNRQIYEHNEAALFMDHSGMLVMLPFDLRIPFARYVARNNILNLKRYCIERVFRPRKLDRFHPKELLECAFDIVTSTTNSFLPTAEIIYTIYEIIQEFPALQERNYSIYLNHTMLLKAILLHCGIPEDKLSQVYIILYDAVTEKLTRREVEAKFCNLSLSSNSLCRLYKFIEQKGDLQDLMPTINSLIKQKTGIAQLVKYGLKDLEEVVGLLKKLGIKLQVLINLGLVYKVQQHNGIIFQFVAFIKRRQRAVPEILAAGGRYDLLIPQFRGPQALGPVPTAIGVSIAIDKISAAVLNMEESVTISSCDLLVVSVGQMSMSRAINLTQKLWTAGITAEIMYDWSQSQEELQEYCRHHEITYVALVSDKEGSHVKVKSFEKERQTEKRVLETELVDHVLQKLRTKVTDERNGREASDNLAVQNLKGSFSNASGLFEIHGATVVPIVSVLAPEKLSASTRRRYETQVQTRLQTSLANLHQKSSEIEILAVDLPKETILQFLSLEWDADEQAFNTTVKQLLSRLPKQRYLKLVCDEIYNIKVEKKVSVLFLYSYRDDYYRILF

human GCN2 (full length, purified; Carna Bioscience # 05-153), sequence (Q9P2K8 whole entry): as above
human HRI (Carna Bioscience # 05-154), sequence (Q9BQI3 whole entry): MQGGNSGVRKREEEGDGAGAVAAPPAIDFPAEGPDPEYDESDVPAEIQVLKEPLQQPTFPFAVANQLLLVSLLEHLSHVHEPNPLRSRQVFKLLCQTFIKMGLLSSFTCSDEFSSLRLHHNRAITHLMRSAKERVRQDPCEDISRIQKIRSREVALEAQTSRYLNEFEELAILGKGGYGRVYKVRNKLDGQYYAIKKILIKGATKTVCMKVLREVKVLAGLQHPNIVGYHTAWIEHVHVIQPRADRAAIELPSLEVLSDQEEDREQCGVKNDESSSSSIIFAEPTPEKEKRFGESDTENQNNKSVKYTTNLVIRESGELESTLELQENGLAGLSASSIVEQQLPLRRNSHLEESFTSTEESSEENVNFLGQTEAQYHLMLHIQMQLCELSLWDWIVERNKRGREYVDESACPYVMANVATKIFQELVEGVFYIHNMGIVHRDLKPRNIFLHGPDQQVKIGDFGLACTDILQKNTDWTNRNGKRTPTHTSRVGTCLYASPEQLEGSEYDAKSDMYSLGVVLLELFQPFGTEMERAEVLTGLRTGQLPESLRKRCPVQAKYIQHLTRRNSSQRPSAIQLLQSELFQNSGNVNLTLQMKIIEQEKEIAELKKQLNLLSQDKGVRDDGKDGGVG

IC50 [1] [µM]	IC50 [2] [µM]	IC50 [3] [µM]	fold activation [4]	SMILES
0.00276	0.00155	3.26		COc1ncc(Cl)cc1S(=O)(=O)Nc1ccc(F)c(C#Cc2cnc(N)nc2)c1F [GCN2iB]
	> 3	4.5		Cc1nn(-c2ccccc2)c2sc(C(=O)Nc3ccc(S(=O)(=O)NCc4ccco4)cc3)cc12 [compound 18, N-(4-{[(furan-2-yl)methyl]sulfamoyl}phenyl)-3-methyl-1-phenyl-1H-thieno[2,3-c]pyrazole-5-carboxamide]
	> 3	3.75	~ 40 fold	Cc1nc(N)sc1-c1csc(Nc2ncccn2)n1 [compound 20, 4’-methyl-N∼2∼-2-pyrimidinyl-4,5’-bi-1,3-thiazole-2,2’-diamine]
	> 3			CS(=O)(=O)c1ncc(-c2ccc(Br)cc2)cn1 [compound 21, 5-(4-bromophenyl)-2-(methylsulfonyl)pyrimidine]
